Data taken from BindingDB's records for doi:10.1016/s0960-894x(03)00295-6 (Rensselaer Polytechnic Institute, 2003).

Experiment: Binding affinity was determined towards Opioid receptor delta 1 using [3H]naltrindole as radioligand

Compared with Nc1ccc2c3c1O[C@H]1C(=O)CC[C@@]4(O)[C@@H](C2)N(CC2CC2)CC[C@]314 [10-amino-4-cyclopropylmethyl-17-hydroxy-(1S,5R,13R,17S)-12-oxa-4-azapentacyclo[9.6.1.01,13.05,17.07,18]octadeca-7(18),8,10-trien-14-one], O=CNc1ccc2c3c1O[C@H]1C(=O)CC[C@@]4(O)[C@@H](C2)N(CC2CC2)CC[C@]314 [N-[4-cyclopropylmethyl-17-hydroxy-14-oxo-(1S,5R,17S)-12-oxa-4-azapentacyclo[9.6.1.01,13.05,17.07,18]octadeca-7(18),8,10-trien-10-yl]methanamide] is 2.1-fold lower in Ki: 880 nM for the first, 420 nM for the second.

Compared with CC1[C@H]2Cc3ccc(NC=O)cc3[C@]1(C)CCN2CC1CC1 (stereo partly drawn) [(1R,9R,13R)-10-(cyclopropylmethyl)-1,13-dimethyl-10-azatricyclo[7.3.1.0~2,7~]trideca-2,4,6-trien-4-ylformamide], C[C@@H]1C2Cc3ccc(NC=O)cc3[C@]1(C)CCN2CC1CC1 [(1S,9S,13S)-10-(cyclopropylmethyl)-1,13-dimethyl-10-azatricyclo[7.3.1.0~2,7~]trideca-2,4,6-trien-4-ylformamide] is higher in Ki: 9.8 nM for the first, greater than 10000 nM for the second. The first binds more tightly here.

Compared with C[C@H]1C2Cc3ccc(N(C)C=O)cc3[C@@]1(C)CCN2CC1CC1 [N-((6S,11R)-3-Cyclopropylmethyl-6,11-dimethyl-1,2,3,4,5,6-hexahydro-2,6-methano-benzo[d]azocin-8-yl)-N-methyl-formamide], C[C@H]1C2Cc3ccc(NC=O)cc3[C@@]1(C)CCN2CC1CC1 [N-((6S,11R)-3-Cyclopropylmethyl-6,11-dimethyl-1,2,3,4,5,6-hexahydro-2,6-methano-benzo[d]azocin-8-yl)-formamide] is 170-fold lower in Ki: 6200 nM for the first, 37 nM for the second.

CC(=O)Nc1ccc2c(c1)[C@@]1(C)CCN(CC3CC3)C(C2)[C@@H]1C [N-((6S,11R)-3-Cyclopropylmethyl-6,11-dimethyl-1,2,3,4,5,6-hexahydro-2,6-methano-benzo[d]azocin-8-yl)-acetamide] and C[C@H]1C2Cc3ccc(NC(=O)c4ccccc4)cc3[C@@]1(C)CCN2CC1CC1 [N-((6S,11R)-3-Cyclopropylmethyl-6,11-dimethyl-1,2,3,4,5,6-hexahydro-2,6-methano-benzo[d]azocin-8-yl)-benzamide] are within 1.5-fold of each other in Ki: 1700 nM for the first, 2400 nM for the second.

With CC[C@@]12CCN(CC3CC3)C(C(=O)c3ccc(NC=O)cc31)[C@@H]2C [N-((6S,11R)-3-Cyclopropylmethyl-6-ethyl-11-methyl-1-oxo-1,2,3,4,5,6-hexahydro-2,6-methano-benzo[d]azocin-8-yl)-formamide] the Ki was 52 nM.
